Data reported in publication PMC3172881 (Cancer cell, 2011).

Assays:
mEP^Ephb2 cells = assay: HTS activity against ependymoma cells; type: cell-based, mouse; conditions: result in words
[1] = system: mEP^Ephb2, mBT^NICD1, NSC^wt and NSC^null cells; type: cell-based, mouse; conditions: for cell-selective activity class in HTS: class from average EC50 in each of four cell types, secondary screen
IGF1R = assay: Western blot of IGF1R signalling in mEP^Ephb2 cells stimulated with IGF2; type: cell-based, mouse
[2] = system: mEP^Ephb2-LUC brain tumors; assay: Orthotopic allograft efficacy study, bioluminescence and survival; type: in vivo, mouse; conditions: for survival of mice harbouring mEP^Ephb2-LUC tumors / rate of mEP^Ephb2-LUC tumor growth: 5-FU 75 mg/kg i.v. once weekly, bortezomib 0.8 mg/kg i.v. twice weekly; for rate of mEP^Ephb2-LUC tumor growth: bioluminescence
[3] = system: subventricular zone (SVZ) of Prom1^+/C-L mice; assay: In vivo NSC toxicity: ApoTag, DCX and LacZ; conditions: for number of Prom1^+ cells in the SVZ / number of apoptotic cells in the SVZ: ±SEM; for number of apoptotic cells in the SVZ: ApoTag
[4] = 5-FU pharmacokinetics, tumor microdialysis and plasma; type: in vivo, mouse
[5] = Tolerability of 5-FU infusion via Alzet pumps; type: in vivo, mouse; conditions: 13 mg/kg/hour via Alzet pumps; unacceptably toxic

Compound: CS(=O)(=O)CCNCc1ccc(-c2ccc3ncnc(Nc4ccc(OCc5cccc(F)c5)c(Cl)c4)c3c2)o1 [lapatinib]
- activity against mEP^Ephb2 cells in HTS (mEP^Ephb2 cells): inactive

Compound: CC[C@@]1(O)C(=O)OCc2c1cc1n(c2=O)Cc2cc3c(CN(C)C)c(O)ccc3nc2-1 [topotecan]
- EC50 ([1]; Mus musculus, 96 h): 0.2 to 0.7 µM
- cell-selective activity class in HTS [1]: equipotent

Compound: C/C=C(\C)C(=O)O[C@H]1[C@H](OC(C)=O)[C@@]2(CO)C(CC1(C)C)C1=CC[C@@H]3[C@@]4(C)CC[C@H](O[C@@H]5O[C@H](C(=O)O)[C@@H](O[C@@H]6O[C@H](CO)[C@@H](O)[C@H](O)[C@H]6O)[C@H](O)[C@H]5O[C@@H]5O[C@H](CO)[C@@H](O)[C@H](O)[C@H]5O)[C@H](CO)C4CC[C@@]3(C)[C@@]1(C)C[C@H]2O (stereo partly drawn) [beta-escin]
- cell-selective activity class in HTS [1]: ependymoma selective

Compound: COc1cc2c(cc1Nc1nc(Nc3ccsc3C(N)=O)c3cc[nH]c3n1)N(C(=O)CN(C)C)CCC2 [GSK2110236A]
- activity against mEP^Ephb2 cells in HTS (mEP^Ephb2 cells): potent inhibitor
- IGF1R and its downstream signal (IGF1R): blocked

Compound: CC(C)C[C@H](NC(=O)[C@H](Cc1ccccc1)NC(=O)c1cnccn1)B(O)O [bortezomib]
- activity against mEP^Ephb2 cells in HTS (mEP^Ephb2 cells): highly potent
- survival of mice harbouring mEP^Ephb2-LUC tumors [2]: significantly prolonged
- rate of mEP^Ephb2-LUC tumor growth [2]: halved
- DCX^+ labelling in the SVZ ([3]; four weeks of therapy): returned to control levels
- Prom1^+ cell numbers in the SVZ relative to controls ([3]; four weeks of therapy): > 2.5 times
- apoptotic labelling in the SVZ ([3]; four weeks of therapy): returned to control levels
- number of Prom1^+ cells in the SVZ ([3]; four weeks of therapy): 57.8%
- area of DCX^+ neuroblast rests in the SVZ ([3]; two weeks of therapy): 6.0 μm^2 per μm ventricular surfac
- number of Prom1^+ cells in the SVZ ([3]; two weeks of therapy): 39.2%
- number of apoptotic cells in the SVZ ([3]; two weeks of therapy): 22.2±5.1

Compound: CCc1c2c(nc3ccc(OC(=O)N4CCC(N5CCCCC5)CC4)cc13)-c1cc3c(c(=O)n1C2)COC(=O)[C@]3(O)CC [irinotecan]
- activity against mEP^Ephb2 cells in HTS (mEP^Ephb2 cells): Neither carboplatin nor irinotecan were active

Compound: N.N.O=C([O-])C1(C(=O)[O-])CCC1.[Pt+2] [carboplatin]
- activity against mEP^Ephb2 cells in HTS (mEP^Ephb2 cells): Neither carboplatin nor irinotecan were active

Compound: O=c1[nH]cc(F)c(=O)[nH]1 [5-FU, 5-fluorouracil]
- survival of mice harbouring mEP^Ephb2-LUC tumors [2]: significantly prolonged
- rate of mEP^Ephb2-LUC tumor growth [2]: halved
- activity against mEP^Ephb2-LUC brain tumors ([2]; delivered subcutaneously via Alzet pumps): inactive
- time the tumor concentration was maintained ([4]; 13 mg/kg/hour via Alzet pumps, ~10 μM): over 24 hours
- time brain tumor concentration remained above 10μM ([4]; intravenous bolus 75 mg/kg): approximately 1 hour
- peak concentration in brain tumors ([4]; intravenous bolus 75 mg/kg, microdialysis, ±79 S.D.): 800 µM
- tumor drug levels ([4]; subcutaneous infusion 1.03 mg/kg/hour): failed to generate detectable tumor drug levels
- weight loss [5]: ≥ 20%
- DCX^+ labelling in the SVZ ([3]; four weeks of therapy): returned to control levels
- apoptotic labelling in the SVZ ([3]; four weeks of therapy): returned to control levels
- area of DCX^+ neuroblast rests in the SVZ ([3]; two weeks of therapy): 2.2 μm^2 per μm ventricular surfac
- number of Prom1^+ cells in the SVZ ([3]; two weeks of therapy): 35.1%
- number of apoptotic cells in the SVZ ([3]; two weeks of therapy): 12.0±1.7
